In test [1] the test system is apomorphine induced stereotypy. As to the kind of experiment: inhibition of apomorphine stereotypy assay (potential for extrapyramidal side effects). Type of test: in vivo, male Wistar rats. Particulars: rats, drug one hour prior to scoring, apomorphine 1.5 mg/kg s.c. On the procedure: Potential for undersirable extrapyramidal side effect activity is determined in the inhibition of apomorphine stereotypy assay by a method similar to those described by N. E. Anden, et al., J. Pharma. Pharmacol., 19, 627, (1967), and A. M. Ernst, et al., Psychopharmacologia (Berl.), 10, 316 (1967).
In this assay, groups of male Wistar rats (125-200 grams) are used and food and water are available ad libitum. Drugs are prepared using distilled water and, if insoluble, a suitable surfactant is added. The route of administration may be varied and the dosage volume is 10 ml/kg. For a primary screen, a group size of six is used. Drug is administered one hour prior to scoring and the animals are placed in individual clear plastic cages (24×14×13 cm). The control group receives vehicle. Apomorphine hydrochloride solution is prepared at a concentration of 15 mg/10 ml in a 0.03% ascorbic acid stock solution (30 mg of ascorbic acid in 100 ml of 1% saline) to increase the stability of the apomorphine hydrochloride while in solution. Apomorphine hydrochloride solution is administered at a dose of 1.5 mg/kg subcutaneous (s.c.) with a dosage volume of 1 ml/kg. Fifty minutes after drug dosing, stereotypic behavior is noted. Stereotypic activity is defined as sniffing, licking or chewing behavior that occurs in a repetitive manner and is rated as follows: Constant sniffing, licking or chewing without interruption; the animal is considered protected if this behavior is interrupted.
The percent effectiveness of a drug is determined by the number of animals protected in each group. Antipsychotics displaying little effect in this assay would be expected to show a low propensity to cause undersirable extrapyramidal side effects and/or tardive dyskinesias in mammals (N. C. Moore and S. Gershon, Clinical Neuropharmacology, 12, 167, (1989).
A dose-response is run in the same manner as a primary screen except that a group size of 10 is used and the animals are dosed in a randomized manner. One group receives vehicle. ED50 for stereotypy are calculated by means of probit analysis.
Inhibition of apomorphine induced stereotypy of respresentative 8-azabicyclo[3.2.1]octylalkylthiazolidinones of the present invention and two standards is given in Table II.

Test [2] deals with apomorphine-induced climbing. As to the kind of experiment: inhibition of apomorphine-induced climbing in mice (climbing mice assay, antipsychotic activity). Type of test: in vivo, CK-1 male mice. Particulars: Mus musculus, ip, 0.5 h, read-out: Antipsychotic Activity ED50. The method, then:
The 8-azabicyclo[3.2.1]octylalkylthiazolidnones of the present invention are useful for treating psychoses by virtue of their ability to block apomorphine-induced climbing in mammals.
Antipsychotic activity is determined in the climbing mice assay by a method similar to those described by P. Protais et al., Psychopharmacol., 50,1 (1976) and B. Costall, Eur. J. Pharmacol., 50, 39 (1978).
The subject CK-1 male mice (23-27 grams) are group-housed under standard laboratory conditions. The mice are individually placed in wire mesh stick cages (4"×4"×10") and are allowed one hour for adaptation and exploration of the new environment. Then apomorphine is injected subcutaneously at 1.5 mg/kg, a dose causing climbing in all subjects for 30 minutes. Compounds to be tested for antipsychotic activity are injected intraperitoneally 30 minutes prior to the apomorphine challenge at a screening dose of 10 mg/kg.
For evaluation of climbing, 3 readings are taken at 10, 20 and 30 minutes after apomorphine administration according to the following scale:
4 paws on bottom (no climbing)
2 paws on the wall (rearing)
4 paws on the wall (full climb)
Mice consistently climbing before the injection of apomorphine will be discarded.
With full-developed apomorphine climbing, the animals are hanging onto the cage walls, rather motionless, over longer periods of time. By contrast, climbs due to mere motor stimulation usually only last a few seconds.
The climbing scores are individually totaled (maximal score; 6 per mouse over 3 readings) and the total score of the control group (vehicle intraperitioneally-apomorphine subcutaneously) is set to 100%. ED50 values with 95% confidence limits are calculated by a Linear Regression Analysis. Antipsychotic activity expressed as the ED50 value of representative 8-azabicyclo[3.2.1]octylalkylthiazolidinones as well as two standard antipsychotics are presented in Table I.

Read-outs that look alike come from different tables or passages of the source.

Regarding `CC1SCN(CCCCN2C3CCC2CC(OC(c2ccccc2)c2ccccc2)C3)C1=O.Cl` (centres unmarked) [3-[4-[3-(diphenylmethoxy)-8-azabicyclo[3.2.1]octan-8-yl]-butyl]-5-methyl-4-thiazolidinone hydrochloride], the “% Inhibition of apomorphine induced stereotypy” value (“% Inhibition” for short) in test [1] (dose 20 mg/kg body wt.) is listed as 0%. For the same compound, the ED50 in test [2] was determined as 12.1 mg/kg.
With `CC1(C)SCN(CCCCN2C3CCC2CC(OC(c2ccccc2)c2ccccc2)C3)C1=O.Cl` (centres unmarked) [3-[4-[3-(diphenylmethoxy)-8-azabicyclo[3.2.1]octan-8-yl]-butyl]-5,5-dimethyl-4-thiazolidinone hydrochloride], the “% Inhibition” value in test [1] (dose 40 mg/kg body wt.) was determined as 17%. In test [2], the ED50 amounted to 7.73 mg/kg.
`CSc1ccc2c(c1)N(CCC1CCCCN1C)c1ccccc1S2` (centres unmarked) [thioridazine]: the “% Inhibition” value in test [1] (dose 16 mg/kg body wt.) is listed as 50%. In addition, the ED50 in test [2] (climbing mice assay, compound intraperitoneal 30 minutes prior to apomorphine 1.5 mg/kg s.c., Linear Regression Analysis) worked out at 4.1 mg/kg.
Turning to `O=C(CCCN1CCC(O)(c2ccc(Cl)cc2)CC1)c1ccc(F)cc1` [haloperidol], the “% Inhibition” value in test [1] (dose 0.2 mg/kg body wt.) came to 50%. Further, in test [2], the ED50 is 0.16 mg/kg.

A word on the ED50: it is the dose that gives a 50% effect, or the effect in half of the subjects.

(Values after US5045546A, “8-azabicyclo[3.2.1]octylalkylthiazolidines” (Hoechst-Roussel Pharmaceuticals Inc., priority 1990, dated 1991).)
